Test results: US20080171097A1, “PRODUCT LIQUORICE ROOT AND OAK BARK IN COMBINATION WITH DEXAPANTHENOL” (priority 2007, published 2008)

Test system: herpes disease in the lip region (herpes blisters)
Assay: Topical application of the composition in the oral and/or pharyngeal cavity of voluntary test persons (herpes blisters, other inflammations)
Assay type: in vivo, human (voluntary test persons)
Details: a test subject
Excerpt: This composition was applied in the oral and/or pharyngeal cavity of voluntary test persons. When there were signs that herpes blisters were about to occur or when herpes blisters had already occurred, the composition was applied several times daily to the affected skin sites using a cotton bud. In the case of other inflammations in the oral and/or pharyngeal cavity the solution was also either applied locally or a dilution of this solution was gurgled.

`Nc1nc2c(ncn2COCCO)c(=O)[nH]1` [Aciclovir] was tested, and the “relapse / reoccurrence after treatment and healing of acute herpes blisters” value was “relapses very often occurred again within the following 14 days”.
